Patent publication US10221185B2, “Crystal form of substituted aminopyran derivativek” (Sichuan Haisco Pharmaceutical Co., Ltd., priority 2015, dated 2019)
Each block holds one compound with its values, some of them ahead of it.

Experiments:
Assay type in all cases: physicochemical
[1] = Stability of crystal forms of Compound A kept dry at room temperature; settings: Kept dry at room temperature for 14 d
[2] = Slurry competition experiments of crystal forms of Compound A at room temperature
Excerpt: 2. Room temperature competition experiment between Crystal form I and Crystal forms II, III, IV of Compound A, examining the stability of the crystal forms in solvents such as water, ethanol, and water:ethanol (1:1) at room temperature, see Table 2 for details.

[3] = Chemical stability of Crystal form IV of Compound A (influencing factors: high temperature, light exposure, high humidity)
Excerpt: A sample was investigated under the conditions and sampling time points shown in Table 4 below for influencing factors, and the results are shown in Table 5 below.

[4] = High humidity (92.5% RH), unsealed, 10 d
[5] = High humidity (92.5% RH), unsealed, 60 d
[6] = High temperature, unsealed, 40° C., 10 d
[7] = High temperature, unsealed, 40° C., 60 d
[8] = High temperature, unsealed, 60° C., 10 d
[9] = High temperature, unsealed, 60° C., 60 d

Crystal form after transformation [1]: Crystal form II
Stability of crystal form (conclusion in words) [1]: good stability
Structure (SMILES): CS(=O)(=O)n1cc2c(n1)CN([C@@H]1C[C@H](N)[C@@H](c3cc(F)ccc3F)O[C@@H]1C(F)(F)F)C2 [Crystal form II, (2R,3S,5R,6S)-2-(2,5-difluorophenyl)-5-(2-(methylsulfonyl)pyrrolo[3,4-c]pyrazol-5(2H,4H,6H)-yl)-6-(trifluoromethyl)tetrahydro-2H-pyran-3-amine]

Crystal form after transformation [1]: Crystal form III
Stability of crystal form (conclusion in words) [1]: good stability
Structure (SMILES): CS(=O)(=O)n1cc2c(n1)CN([C@@H]1C[C@H](N)[C@@H](c3cc(F)ccc3F)O[C@@H]1C(F)(F)F)C2 [Crystal form III, (2R,3S,5R,6S)-2-(2,5-difluorophenyl)-5-(2-(methylsulfonyl)pyrrolo[3,4-c]pyrazol-5(2H,4H,6H)-yl)-6-(trifluoromethyl)tetrahydro-2H-pyran-3-amine]

Crystal form after transformation [1]: Crystal form IV
Stability of crystal form (conclusion in words) [1]: good stability
Appearance ([3]; 0 d): Off-white
Moisture ([3]; 0 d): 0.19%
Purity of Compound A ([3]; 0 d): 99.67%
Appearance [3, 4]: Light yellow
Moisture [3, 4]: 0.27%
Purity of Compound A [3, 4]: 99.57%
Appearance [3, 5]: Light yellow
Moisture [3, 5]: 0.20%
Purity of Compound A [3, 5]: 99.28%
Appearance [3, 6]: Light yellow
Moisture [3, 6]: 0.25%
Purity of Compound A [3, 6]: 99.54%
Appearance [3, 7]: Light yellow
Moisture [3, 7]: 0.18%
Purity of Compound A [3, 7]: 99.43%
Appearance [3, 8]: Light yellow
Moisture [3, 8]: 0.36%
Purity of Compound A [3, 8]: 99.48%
Appearance [3, 9]: Light yellow
Moisture [3, 9]: 0.15%
Purity of Compound A [3, 9]: 99.15%
Appearance ([3]; Light exposure, unsealed, 10 d): Off-white
Moisture ([3]; Light exposure, unsealed, 10 d): 0.32%
Purity of Compound A ([3]; Light exposure, unsealed, 10 d): 99.51%
Appearance ([3]; Light exposure, unsealed, 60 d): Off-white
Moisture ([3]; Light exposure, unsealed, 60 d): 0.16%
Purity of Compound A ([3]; Light exposure, unsealed, 60 d): 99.43%
Structure (SMILES): CS(=O)(=O)n1cc2c(n1)CN([C@@H]1C[C@H](N)[C@@H](c3cc(F)ccc3F)O[C@@H]1C(F)(F)F)C2 [Crystal form IV of Compound A, (2R,3S,5R,6S)-2-(2,5-difluorophenyl)-5-(2-(methylsulfonyl)-pyrrolo[3,4]pyrazol-5(2H,4H,6H)-yl)-6-(trifluoromethyl)tetrahydro-2H-pyran-3-amine]
Relative stability of crystal forms (conclusion in words) [2]: the most stable crystal form at room temperature
